In patent US20230144619A1, “SALT OF ARYLAMINOPURINE DERIVATIVE, PREPARATION METHOD THEREFOR AND USE THEREOF” (CSPC Zhongqi Pharmaceutical Technology (Shijiazhuang) Co., …, priority 2020, published 2023):
Counter-ions that a name gives are not always drawn.

Test system: human non-small cell lung cancer HCC827
Assay: In-vivo anti-tumor test, non-small cell lung cancer model
Design: species or system nude mice
Conditions: once daily oral administration for 30 days
Description: The salt sample obtained from Example 1 was tested (specifically for FLT3-ITD acute myeloid leukemia, non-small cell lung cancer with EGFR activating mutations, or Ph-positive chronic myeloid leukemia) according to the in-vivo anti-tumor test described in the biological assessment of the patent application WO2011/147066.

## CC(C)n1c(Nc2cccnc2)nc2cnc(Nc3ccc(N4CCN(C)CC4)cc3)nc21 [Example 1, arylaminopurine derivative.trihydrochloride.pentahydrate]
7.5, 15 and 30 mg/kg, dose dependence
  growth of human non-small cell lung cancer HCC827: dose-dependently inhibit the growth
HCC827, 7.5 mg/kg
  tumor size compared with the initial tumor: tumor shrinkage
HCC827, 15 mg/kg
  tumor size compared with the initial tumor: tumor shrinkage
HCC827, 30 mg/kg
  regression of the tumor: nearly complete regression of the tumor
  tumor size compared with the initial tumor: tumor shrinkage
